In patent US7964531B2, “3-phenoxy-4-pyridazinol derivatives and herbicidal composition containing the same” (Mitsui Chemicals Agro, Inc., priority 2001, dated 2011):

| SMILES | melting point [°C] |
| --- | --- |
| Cc1ccc(S(=O)(=O)Oc2cc(Cl)nnc2Oc2cccc(C(C)(C)C)c2)cc1 [Compound No. 2235, 3-(3-tert-Butylphenoxy)-6-chloro-4-pyridazinyl 4-methylbenzenesulfonate] | 56 to 57 |
| Cc1ccc(S(=O)(=O)Oc2cc(Cl)nnc2Oc2ccc(C)cc2C)cc1 [Compound No. 2247, 6-Chloro-3-(2,4-dimethylphenoxy)-4-pyridazinyl 4-methylbenzenesulfonate] | 80 to 81 |
| Oc1cc(Cl)nnc1Oc1cccc2c1OCO2 [Compound No. 544, 3-(1,3-Benzodioxol-4-yloxy)-6-chloro-4-pyridazinol] | 206 to 211 |
| Cc1ccccc1Oc1nnccc1O [Compound No. 5, 3-(2-Methylphenoxy)-4-pyridazinol] | 169 to 171 |
| Oc1cc(Cl)nnc1Oc1cccc(F)c1F [Compound No. 437, 6-Chloro-3-(2,3-difluorophenoxy)-4-pyridazinol] | 188 to 193 |
| Oc1cc(Cl)nnc1Oc1ccccc1C1(c2ccccc2)CC1 [Compound No. 184, 6-Chloro-3-[2-(1-phenylcyclopropyl)phenoxy]-4-pyridazinol] | 172 to 173 |
| Oc1cc(Cl)nnc1Oc1c(Cl)cccc1C1CC1 [Compound No. 740, 6-Chloro-3-(2-chloro-6-cyclopropylphenoxy)-4-pyridazinol] | 224 to 225 |
| COc1cccc(Oc2nnc(Cl)cc2O)c1I [Compound No. 2551, 6-Chloro-3-(2-iodo-3-methoxyphenoxy)-4-pyridazinol] | 231 to 234 |
| CCCS(=O)(=O)Oc1cc(Cl)nnc1Oc1ccccc1C [Compound No. 2038, 6-Chloro-3-(2-methylphenoxy)-4-pyridazinyl 1-propanesulfonate] | 72 to 73 |
| Cc1cccc(C(C)(C)C)c1Oc1nnc(Cl)cc1O [Compound No. 805, 3-(2-tert-Butyl-6-methylphenoxy)-6-chloro-4-pyridazinol] | 135 to 136 |
| Oc1cc(Cl)nnc1Oc1c(Cl)cccc1Br [Compound No. 734, 3-(2-Bromo-6-chlorophenoxy)-6-chloro-4-pyridazinol] | 266 to 274 |
| CCc1c(C)cc(C)c(C)c1Oc1nnc(Cl)cc1O [Compound No. 2601, 6-Chloro-3-(2-ethyl-3,5,6-trimethylphenoxy)-4-pyridazinol] | 188 to 195 |
| CCOc1ccccc1Oc1nnc(Cl)cc1O [Compound No. 386, 6-Chloro-3-(2-ethoxyphenoxy)-4-pyridazinol] | 155 to 175 |
| Oc1cc(Cl)nnc1Oc1c(Br)cccc1C1CC1 [Compound No. 762, 3-(2-Bromo-6-cyclopropylphenoxy)-6-chloro-4-pyridazinol] | 230 to 232 |
| COc1cccc(C2CC2)c1Oc1nnc(Cl)cc1O [Compound No. 964, 6-Chloro-3-(2-cyclopropyl-6-methoxyphenoxy)-4-pyridazinol] | 194 to 199 |
| CC(C)c1cccc(Oc2nnc(Cl)cc2O)c1 [Compound No. 415, 6-Chloro-3-(3-isopropylphenoxy)-4-pyridazinol] | 176 to 177 |
| COc1ccccc1C(=O)Oc1cc(Cl)nnc1Oc1ccccc1C [Compound No. 1509, 6-Chloro-3-(2-methylphenoxy)-4-pyridazinyl 2-methoxybenzoate] | 114 to 116 |
| CC=Cc1cc(O)c(Oc2ccccc2C)nn1 [Compound No. 2442, 3-(2-Methylphenoxy)-6-(1-propenyl)-4-pyridazinol] | 208 to 210 |
| COC(=O)c1ccccc1Oc1nnc(Cl)cc1O [Compound No. 339, Methyl 2-[(6-chloro-4-hydroxy-3-pyridazinyl)oxy]benzoate] | 188 to 191 |
| COc1cccc(OC)c1C(=O)Oc1cc(Cl)nnc1Oc1c(C)cccc1C1CC1 [Compound No. 3162, 6-Chloro-3-(2-cyclopropyl-6-methylphenoxy)-4-pyridazinyl 2,6-dimethoxybenzoate] | 127 to 128 |

Results, then the compound that gave them:

| melting point [°C] | SMILES |
| --- | --- |
| 193 to 195 | Cc1ccc(C(C)C)c(Oc2nnc(Cl)cc2O)c1 [Compound No. 640, 6-Chloro-3-(2-isopropyl-5-methylphenoxy)-4-pyridazinol] |
| 215 to 216 | Oc1cc(Cl)nnc1Oc1ccccc1C1CC1(F)F (stereo not drawn) [Compound No. 264, 6-Chloro-3-[2-(2,2-difluorocyclopropyl)phenoxy]-4-pyridazinol] |
| 222 to 225 | Cc1ccc2occc2c1Oc1nnc(Cl)cc1O [Compound No. 1109, 6-Chloro-3-[(5-methyl-1-benzofuran-4-yl)oxy]-4-pyridazinol] |
| 188 to 200 | Cc1ccc2c(c1Oc1nnc(Cl)cc1O)COC2 [Compound No. 2592, 6-Chloro-3-[(5-methyl-1,3-dihydro-2-benzofuran-4-yl)oxy]-4-pyridazinol] |
| 217 to 219 | Cc1ccc2c(c1Oc1nnc(Cl)cc1O)OCC2 [Compound No. 1096, 6-Chloro-3-[(6-methyl-2,3-dihydro-1-benzofuran-7-yl)oxy]-4-pyridazinol] |
| 191 to 193 | CCCc1cccc(CCC)c1Oc1nnc(Cl)cc1O [Compound No. 890, 6-Chloro-3-(2,6-dipropylphenoxy)-4-pyridazinol] |
| 208 to 210 | Cc1cccc(C2CC2)c1Oc1nnc(Cl)cc1OC(=O)n1c(C)ccc1C [Compound No. 3630, 6-Chloro-3-(2-cyclopropyl-6-methylphenoxy)-4-pyridazinyl 2,5-dimethyl-1H-pyrrole-1-carboxylate] |
| 215 to 220 | Cc1cccc(C(C)C)c1Oc1nnc(Cl)cc1O [Compound No. 803, 6-Chloro-3-(2-isopropyl-6-methylphenoxy)-4-pyridazinol] |
| 170 to 180 | Oc1cc(Cl)nnc1Oc1ccc(OCc2ccccc2)cc1 [Compound No. 2548, 3-[4-(Benzyloxy)phenoxy]-6-chloro-4-pyridazinol] |
| 178 to 180 | Oc1cc(Cl)nnc1Oc1ccccc1C1CCCC1 [Compound No. 292, 6-Chloro-3-(2-cyclopentylphenoxy)-4-pyridazinol] |
| 91 to 93 | Cc1ccccc1Oc1nnc(Cl)cc1OC(=O)c1ccccc1C [Compound No. 1446, 6-Chloro-3-(2-methylphenoxy)-4-pyridazinyl 2-methylbenzoate] |
| 150 to 159 | Cc1ccc(C2CC2)c(Oc2nnc(Cl)cc2O)c1 [Compound No. 662, 6-Chloro-3-(2-cyclopropyl-5-methylphenoxy)-4-pyridazinol] |
| 191 to 200 | Cc1cccc(Oc2nnc(Cl)cc2O)c1[N+](=O)[O-] [Compound No. 498, 6-Chloro-3-(3-methyl-2-nitrophenoxy)-4-pyridazinol] |
| 72 to 74 | Cc1cccc(C2CC2)c1Oc1nnc(Cl)cc1OC(=O)OCC(C)C [Compound No. 1770, 6-Chloro-3-(2-cyclopropyl-6-methylphenoxy)-4-pyridazinyl isobutyl carbonate] |
| 219 to 221 | Cn1ccc2cccc(Oc3nnc(Cl)cc3O)c21 [Compound No. 2568, 6-Chloro-3-[(1-methyl-1H-indol-7-yl)oxy]-4-pyridazinol] |
| 208 to 212 | Oc1cc(Cl)nnc1Oc1ccccc1Cl [Compound No. 125, 6-Chloro-3-(2-chlorophenoxy)-4-pyridazinol] |
